Source: patent US7179954B1, “Isolated nucleic acids coding for a nuclear base transporter and uses thereof” (Carnegie Insitution of Washington, priority 1999, dated 2007)

Columns and labels:
Assay type in all cases: cell-based
PUP1 = PUP1 (Arabidopsis thaliana, UniProt Q9FZ96, S63G); experiment: Voltage and current measurement in Xenopus oocytes expressing PUP1; parameters: a primer was used which demolishes the STOP codon of PUP1 and simultaneously inserts a NotI excision site; expressed in transfected cells; host or cells: Xenopus oocytes injected with in vitro transcribed RNA
Description: The one-way directed currents are measured as soon as adenine is added. The current strength is dependent on the concentration (bars indicate the current on the ordinate and the time on the abscissa).
The cDNA for PUP1 was excised with NotI and cloned in an oocyte expression vector containing untranslated 5′ and 3′ regions of the β-globin from Xenopus. The cDNA was then replicated by means of PCR. SP6 (from the oocyte vector) was used as upstream primer, as downstream primer a primer was used which demolishes the STOP codon of PUP1 and simultaneously inserts a NotI excision site. This PCR fragment was excised by NotI and HindIII and ligated into an oocyte expression vector which in addition contains behind the NotI excision site the gene for GFP (“green fluorescent protein” from the jellyfish). In that way an open reading-frame is constructed for a fusion protein from PUP1 and GFP. By insertion of the NotI excision site a linker with three base pairs coding for alanine is constructed. The plasmid was linearized with MIuI, and RNA was transcribed in vitro by means of SP6 polymerase and absorbed into water to about 1 ng/nl. Each oocyte (ripening stage 5 to 6) was injected with 50 nl. […]
For voltage measurement a glass electrode filled with 3M KCl was stuck into the oocyte. With a Dagan amplifier the potential was measured relative to the reference electrode. […]

[1] = target: T1, PUP1 nuclear base transporter (Arabidopsis thaliana, UniProt Q9FZ96, S63G); experiment: Uptake of radioactively labelled adenine and cytosine by yeast strain MG887ura3-::pFL61-PUP1
T1 construct: The PUP1 protein expressed by the yeast strain MG887ura3^−::pFL61-PUP1; expressed in transfected cells; host or cells: Saccharomyces cerevisiae MG887ura3- (fcy2), plasmid pFL61-PUP1
Description: (§1) For measuring the rate of uptake the yeast strains MG887ura3^−::pFL61, MG887ura3^−::pFL61-PUP1 and their original strain Σ1278b (Dubois & Grenson, 1979, Mol. Gen. Genet. 175, 67–76) were cultured in complete medium (YPD) without uracil and with 2% glucose as carbon source up to an OD600 of 0.6 at 28° C. The cells were harvested at 3000 g, washed twice with water and brought to an OD600 of 12 with sodium phosphate buffer (100 mM, pH 4.5), 1% glucose. The cell suspension was stored in 100 μl portions on ice up to the beginning of the uptake measurements. Before the start of the uptake measurements the cells were pre-incubated at 30° C. for 2 minutes. The reaction was then started, by which 100 μl of radioactively labelled substrate solution was added to 100 μl cell suspension. The reaction mixture was incubated at 30° C. and after 30, 60, 120 and 180 seconds in each case 50 μl of suspension was withdrawn and placed in 4 ml of ice-cold water (in measurements over 180 seconds more cell suspension and substrate solution were correspondingly added). The cells were absorbed on to glass fibre filters and washed with 4 ml of ice-cold water. The radioactivity on the filters was finally ascertained in a liquid scintillation counter.
(§2) Substrate solution: For the substrate solution what is concerned is a 100 mM sodium phosphate buffer pH 4.5 with 1% glucose and 9.25 Bq/μl of radioactively labelled substrate (25–100 μM [^14C] adenine or [^14C] cytosine). In addition the substrate solution contains the unlabelled substrate, possible inhibitors and competitors in double end-concentration. For estimation of the optimum pH the pH value of the sodium phosphate buffer is also changed. When the influence of glucose on the uptake rate is measured neither the cell suspension nor the substrate solution contains glucose. Glucose is only added after starting the uptake measurements at the commencement of measuring at an end-concentration of 1%.
(§3) In Table 1 the uptake of radioactively labelled adenine and cytosine mediated by the PUP1 nuclear base transporter is indicated by the yeast strain MG887ura3^−::pFL61-PUP1. For calculation of the intracellular concentration the cell volume is estimated as four times the dry weight (Ninnemann et al., 1994, EMBO J. 15, 3464–3471). The uptake occurs against a concentration gradient.

[2] = target: T2, PUP1 nuclear base transporter (Arabidopsis thaliana, UniProt Q9FZ96); experiment: as above; conditions: initial concentration medium 200 μM; intracellular, cell volume estimated as four times the dry weight
T2 construct: The PUP1 protein expressed by the yeast strain MG887ura3^−::pFL61-PUP1; expressed in transfected cells; host or cells: Saccharomyces cerevisiae MG887ura3- (fcy2), plasmid pFL61-PUP1
Description: as §1, §2, §3

PUP2 = target: T3, PUP2 (Arabidopsis thaliana, UniProt Q94GB1); experiment: Adenine transport by PUP2
T3 construct: expressed in transfected cells; host or cells: Saccharomyces cerevisiae (inferred)
T3 sequence (Q94GB1 1-347 isoform Q94GB1-2): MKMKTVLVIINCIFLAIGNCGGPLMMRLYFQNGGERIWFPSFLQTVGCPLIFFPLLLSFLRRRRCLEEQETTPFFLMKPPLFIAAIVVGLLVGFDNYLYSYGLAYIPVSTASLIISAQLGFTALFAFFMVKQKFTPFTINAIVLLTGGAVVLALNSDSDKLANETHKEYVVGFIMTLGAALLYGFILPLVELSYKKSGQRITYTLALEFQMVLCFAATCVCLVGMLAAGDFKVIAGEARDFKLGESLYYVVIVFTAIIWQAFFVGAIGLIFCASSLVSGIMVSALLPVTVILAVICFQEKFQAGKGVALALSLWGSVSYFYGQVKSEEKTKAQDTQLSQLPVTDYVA
Description: as §2

FCY2 transporter = target: T4, FCY2 transporter (Saccharomyces cerevisiae, UniProt P17064); experiment: Adenine uptake by the yeast's own FCY2 transporter (competition experiment reference); conditions: substrate concentration 25 μM
T4 construct: in comparison to the yeast's own FCY2 transporter; endogenous in cells
T4 sequence (P17064 1-533): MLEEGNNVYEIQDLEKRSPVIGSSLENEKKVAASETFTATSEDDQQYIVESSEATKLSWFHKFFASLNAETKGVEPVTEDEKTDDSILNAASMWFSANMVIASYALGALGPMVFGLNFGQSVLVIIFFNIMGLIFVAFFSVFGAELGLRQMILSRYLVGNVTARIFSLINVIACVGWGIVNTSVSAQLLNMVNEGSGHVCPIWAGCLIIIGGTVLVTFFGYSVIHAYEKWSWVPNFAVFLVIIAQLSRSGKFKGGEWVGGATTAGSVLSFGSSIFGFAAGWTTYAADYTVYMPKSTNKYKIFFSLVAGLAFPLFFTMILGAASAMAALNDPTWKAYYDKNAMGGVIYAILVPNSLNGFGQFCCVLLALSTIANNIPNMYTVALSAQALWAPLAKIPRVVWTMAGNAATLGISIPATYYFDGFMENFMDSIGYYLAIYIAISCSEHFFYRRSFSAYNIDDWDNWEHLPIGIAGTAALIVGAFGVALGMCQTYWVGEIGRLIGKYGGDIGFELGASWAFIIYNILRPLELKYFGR
Description: as §1, with “The reaction mixture was incubated at 30° C. and after 30, 60, 120 and 180 seconds in each case 50 μl of suspension was withdrawn and placed in 4 ml of ice-cold water (in measurements over 180 seconds more cell suspension and substrate solution were correspondingly added). The cells were absorbed on to glass fibre filters and washed with 4 ml of ice-cold water.” left out
Substrate solution: For the substrate solution what is concerned is a 100 mM sodium phosphate buffer pH 4.5 with 1% glucose and 9.25 Bq/μl of radioactively labelled substrate (25–100 μM [^14C] adenine or [^14C] cytosine). […] When the influence of glucose on the uptake rate is measured neither the cell suspension nor the substrate solution contains glucose. […]

T1 sequence (Q9FZ96 whole entry S63G): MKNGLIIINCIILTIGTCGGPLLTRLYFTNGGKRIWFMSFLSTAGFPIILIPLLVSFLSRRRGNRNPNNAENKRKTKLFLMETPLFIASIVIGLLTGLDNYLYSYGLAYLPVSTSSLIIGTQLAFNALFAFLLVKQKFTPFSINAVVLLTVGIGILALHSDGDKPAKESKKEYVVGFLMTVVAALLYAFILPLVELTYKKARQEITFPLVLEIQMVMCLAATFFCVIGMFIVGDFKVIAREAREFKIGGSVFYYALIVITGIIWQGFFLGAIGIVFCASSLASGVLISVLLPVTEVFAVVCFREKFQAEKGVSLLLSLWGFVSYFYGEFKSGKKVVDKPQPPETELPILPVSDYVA
Chain of PUP1 (Q9FZ96 whole entry S63G): as above
T2 sequence (Q9FZ96 whole entry S63G): as above

Nc1ncnc2nc[nH]c12 [Adenine, adenine]
Effect on oocyte membrane potential (PUP1; adenine in the bath solution, resting potential about -30 mV at pH 7.3): provokes depolarization of the oocyte | Effect on current (PUP1; oocytes held at a voltage of -80 mV): induces a current in one direction | Enrichment factor ([1]; cells versus medium, initial concentration medium 200 μM): 15 | End conc. Medium ([1]; initial concentration medium 200 μM, yeast strain MG887ura3-::pFL61-PUP1): 155 µM | Uptake of radioactively labelled adenine (set at 100%) ([1]; substrate concentration 25 μM, PUP1 expressed in yeast): 1.7 nmol.min^−1 .mg^−1 dry weight | End conc Cells [2]: 2350 µM | Transport by PUP2 (PUP2): in a position to transport adenine | Uptake of radioactively labelled adenine (set at 100%) (FCY2 transporter): 0.9 nmol.min^−1 .mg^−1 dry weight
